From patent US10000471B2, “Pyrazole P38 map kinase inhibitors” (Respivert Limited, priority 2010, dated 2018)

Columns and labels:
[1] = tested on: IL-8 release in d-U937 cells; assay: LPS-induced IL-8 release in d-U937 cells; format: cell-based, human; settings: Homo sapiens, dU937
In short: (§1)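 PMA-differentiated (100 ng/ml, 48–72 hr) U937 macrophage-type cells pre-incubated 2 hr with compound, then stimulated 4 hr with 0.1 μg/mL E. coli O111:B4 LPS; supernatant TNFα and IL-8 measured by sandwich ELISA. TNFα inhibition expressed relative to 10 μg/mL BIRB796, giving REC50; IL-8 inhibition versus vehicle, giving IC50.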

[2] = tested on: Differentiated U937 cells; assay: Cell viability MTT assay; format: cell-based, human; settings: negative = apparent increase in viability; for MTT Assay (Viability) 4 h d-U937, percentage loss of cell viability: 4 hr in 5% FCS; for MTT Assay (Viability) 24 h d-U937, percentage loss of cell viability: 24 h in 10% FCS
In short: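 Differentiated U937 cells pre-incubated with compound either 4 hr in 5% FCS or 24 h in 10% FCS, then 1 hr MTT. Formazan dissolved in DMSO, absorbance at 550 nm. Percentage viability loss relative to 0.5% DMSO vehicle; apparent increases appear as negative percentages.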

[3] = target: T1, p38 MAPKα isoform (MAPK14) (Homo sapiens, UniProt Q16539); assay: Enzyme inhibition assay (FRET, Z-LYTE), p38 MAPKα via MAPKAP-K2 activation; format: biochemical; settings: read-out: Enzyme Inhibition IC50 p38α
T1 construct: purchased Invitrogen
In short: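 Recombinant p38 MAPKα was preincubated with compound for 2 h at RT. Its activity was measured indirectly through activation/phosphorylation of downstream MAPKAP-K2, with a Z-LYTE FRET peptide read-out (coumarin/fluorescein ratio) after a 1 h development step. IC50 came from concentration-response curves of percent inhibition versus an uninhibited control.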

[4] = tested on: TNFα release in d-U937 cells; assay: LPS-induced TNFα release in d-U937 cells; format: cell-based, human; settings: Homo sapiens, dU937, relative to 10 μg/mL BIRB796, read-out: LPS/TNFα REC50 d-U937
In short: as §1

[5] = tested on: TNFα release in THP-1 cells; assay: LPS-induced TNFα release in THP-1 cells; format: cell-based, human; settings: Homo sapiens
In short: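 Human monocytic THP-1 cells stimulated with 3 μg/mL E. coli LPS for 4 hr; supernatant TNFα measured by sandwich ELISA. Inhibition at each concentration versus vehicle control, IC50 from concentration-response curve.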

[6] = tested on: ICAM-1 induction in BEAS2B cells; assay: Poly I:C-induced ICAM-1 induction in BEAS2B cells; format: cell-based, human; settings: Homo sapiens, BEAS-2B, read-out: PolyIC/ICAM1 IC50 BEAS2B
In short: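 Human bronchial epithelial BEAS2B cells were pre-incubated with compound for 2 hr, then transfected with 1 μg/mL poly I:C. After 18 hr, surface ICAM-1 was measured by cell-based ELISA (OD450-655) and normalized to crystal violet cell counts (OD595). IC50 came from inhibition versus vehicle across the concentration-response curve.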

[7] = target: T2, p38 MAPKγ (MAPK12) (Homo sapiens, UniProt P53778); assay: Enzyme inhibition assay (FRET, Z-LYTE), p38 MAPKγ; format: biochemical; settings: read-out: Enzyme Inhibition IC50 p38γ
T2 construct: purchased Invitrogen
T2 sequence (P53778 1-367): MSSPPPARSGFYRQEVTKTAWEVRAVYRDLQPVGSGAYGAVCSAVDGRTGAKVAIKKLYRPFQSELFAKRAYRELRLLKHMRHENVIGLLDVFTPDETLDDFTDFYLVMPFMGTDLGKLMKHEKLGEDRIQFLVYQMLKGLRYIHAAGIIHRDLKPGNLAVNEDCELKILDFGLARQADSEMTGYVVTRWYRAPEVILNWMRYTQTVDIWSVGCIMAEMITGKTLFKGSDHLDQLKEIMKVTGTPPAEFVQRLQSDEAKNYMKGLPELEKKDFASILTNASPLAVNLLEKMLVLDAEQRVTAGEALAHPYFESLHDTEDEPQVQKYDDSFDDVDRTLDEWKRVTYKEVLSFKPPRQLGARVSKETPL
In short: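 Recombinant phosphorylated p38 MAPKγ preincubated 2 h at RT with compound in HEPES buffer, then 2 μM FRET peptide and 100 μM ATP added for 1 h; protease development 1 h. Coumarin/fluorescein emission ratio gave phosphorylation; IC50 from concentration-response versus uninhibited control.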

T1 sequence (Q16539 whole entry, canonical isoform): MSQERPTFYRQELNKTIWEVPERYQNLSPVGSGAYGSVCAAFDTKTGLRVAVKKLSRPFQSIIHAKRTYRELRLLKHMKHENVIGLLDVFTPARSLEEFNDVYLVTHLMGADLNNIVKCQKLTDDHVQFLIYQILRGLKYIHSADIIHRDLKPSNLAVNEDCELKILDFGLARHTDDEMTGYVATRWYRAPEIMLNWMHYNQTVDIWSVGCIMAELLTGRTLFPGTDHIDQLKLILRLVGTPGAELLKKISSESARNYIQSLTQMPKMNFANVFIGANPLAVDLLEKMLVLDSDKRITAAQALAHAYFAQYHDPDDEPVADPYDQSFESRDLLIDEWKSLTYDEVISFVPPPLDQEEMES

SMILES | IC50 [1] [nM] | MTT Assay (Viability) 4 h d-U937, percentage loss of cell viability [2] [%] | MTT Assay (Viability) 24 h d-U937, percentage loss of cell viability [2] [%] | IC50 [3] [nM] | EC50 [4] [nM] | IC50 [5] [nM] | IC50 [6] [nM] | IC50 [7] [nM]
COc1cc(-n2nc(C(C)(C)C)cc2NC(=O)Nc2ccc(Oc3ccnc(NC(=O)N4CC[C@H](N(C)C)C4)c3)c(Cl)c2Cl)ccc1CO [Example 84, (S)-N-(4-(4-(3-(3-tert-butyl-1-(4-hydroxymethyl-3-methoxyphenyl)-1H-pyrazol-5-yl)ureido)-2,3-dichlorophenoxy)pyridin-2-yl)-3-(dimethylamino)pyrrolidine-1-carboxamide] | 9.6 | 3.2 | 56.7 | 13.8 | 1.4 | 1.2 | 2.6 | 27
COc1ccc(-n2nc(C(C)(C)C)cc2NC(=O)Nc2ccc(Oc3ccnc(NC(=O)N4CCC(O)C4)c3)c(Cl)c2Cl)cc1 (centres unmarked) [Example 85, N-(4-(4-(3-(3-tert-butyl-1-(4-methoxyphenyl)-1H-pyrazol-5-yl)ureido)-2,3-dichlorophenoxy)pyridin-2-yl)-3-hydroxypyrrolidine-1-carboxamide] | 5.4 | −25.1 | 58.6 | 12.8 | 1.1 | 0.3 | 0.6 | 27.2
COc1ccc(-n2nc(C(C)(C)C)cc2NC(=O)Nc2ccc(Oc3ccnc(NC(=O)N4CCCC4(C)C)c3)c(Cl)c2Cl)cc1 [Example 86, N-(4-(4-(3-(3-tert-butyl-1-(4-methoxyphenyl)-1H-pyrazol-5-yl)ureido)-2,3-dichlorophenoxy)pyridin-2-yl)-2,2-dimethylpyrrolidine-1-carboxamide] | 2.6 | −5.1 | 26.7 | 138 | 2.7 | 0.8 | 8 | 436
COc1ccc(-n2nc(C(C)(C)C)cc2NC(=O)Nc2ccc(Oc3ccnc(NC(=O)N4CCC(N(C)C)CC4)c3)c(Cl)c2Cl)cc1 [Example 87, N-(4-(4-(3-(3-tert-butyl-1-(4-methoxyphenyl)-1H-pyrazol-5-yl)ureido)-2,3-dichlorophenoxy)pyridin-2-yl)-4-(dimethylamino)piperidine-1-carboxamide] | 2.1 | 7.1 | 39.3 | 14.5 | 1.7 | 1 | 1 | 16.9
COCC(=O)Nc1cc(Oc2c(NC(=O)Nc3cc(C(C)(C)C)nn3-c3ccc(C)cc3)ccc(F)c2F)ccn1 [Example 88, N-(4-(6-(3-(3-tert-butyl-1-p-tolyl-1H-pyrazol-5-yl)ureido)-2,3-difluorophenoxy)pyridin-2-yl)-2-methoxyacetamide] | > 1770 | 12.3 | 10.0 | 2090 | 27 | 989 | 1690 | > 17700
COCC(=O)Nc1cc(Oc2ccc(NC(=O)Nc3cc(C(C)(C)C)nn3-c3ccc(C)cc3)c(Cl)c2Cl)ncn1 [Example 89, N-(6-(4-(3-(3-tert-butyl-1-p-tolyl-1H-pyrazol-5-yl)ureido)-2,3-dichlorophenoxy)pyrimidin-4-yl)-2-methoxyacetamide] | 13.4 | −49.9 | −7.5 | 58.8 | 0.3 | 1.7 | 1.8 | 175
COCC(=O)Nc1nccc(Oc2ccc(NC(=O)Nc3cc(C(C)(C)C)nn3-c3ccc(C)cc3)c(Cl)c2Cl)n1 [Example 90, N-(4-(4-(3-(3-tert-butyl-1-p-tolyl-1H-pyrazol-5-yl)ureido)-2,3-dichlorophenoxy)pyrimidin-2-yl)-2-methoxyacetamide] | 2.3 | −26.8 | −0.5 | 45.4 | 1.3 | 1.3 | 6.8 | 126
COCC(=O)Nc1cc(Oc2ccc(NC(=O)Nc3cc(C(C)(C)C)nn3-c3cccc(CO)c3)c(Cl)c2Cl)ncn1 [Example 92, N-(6-(4-(3-(3-tert-butyl-1-(3-hydroxymethylphenyl)-1H-pyrazol-5-yl)ureido)-2,3-dichlorophenoxy)pyrimidin-4-yl)-2-methoxyacetamide] | 9.9 | −14.4 | 81.0 | 25.8 | 0.9 | 14.2 | 1.9 | 165
COCC(=O)Nc1cc(Oc2ccc(NC(=O)Nc3cc(C(C)(C)C)nn3-c3ccc(CO)cc3)c(Cl)c2Cl)ncn1 [Example 93, N-(6-(4-(3-(3-tert-butyl-1-(4-hydroxymethylphenyl)-1H-pyrazol-5-yl)ureido)-2,3-dichlorophenoxy)pyrimidin-4-yl)-2-methoxyacetamide] | 19.2 | −1.4 | 91.5 | 8.9 | 1.3 | 0.8 | 0.5 | 160
COCC(=O)Nc1nccc(Oc2ccc(NC(=O)Nc3cc(C(C)(C)C)nn3-c3ccc(CO)cc3)c(Cl)c2Cl)n1 [Example 94, N-(4-(4-(3-(3-tert-butyl-1-(4-hydroxymethylphenyl)-1H-pyrazol-5-yl)ureido)-2,3-dichlorophenoxy)pyrimidin-2-yl)-2-methoxyacetamide] | 21.6 | 2.3 | 76.6 | 17 | 0.6 | 1 | 8.9 | 123
CNC(=O)Nc1cc(Oc2ccc(NC(=O)Nc3cc(C(C)(C)C)nn3-c3ccc(C)cc3)c(Cl)c2Cl)ncn1 [Example 95, 1-(3-tert-butyl-1-p-tolyl-1H-pyrazol-5-yl)-3-(2,3-dichloro-4-(6-(3-methylureido)pyrimidin-4-yloxy)phenyl)urea] | 0.2 | −38.0 | 22.5 | 29.9 | 0.2 | 1.6 | 1.1 | 172
CNC(=O)Nc1nccc(Oc2ccc(NC(=O)Nc3cc(C(C)(C)C)nn3-c3ccc(C)cc3)c(Cl)c2Cl)n1 [Example 96, 1-(3-tert-butyl-1-p-tolyl-1H-pyrazol-5-yl)-3-(2,3-dichloro-4-(2-(3-methylureido)pyrimidin-4-yloxy)phenyl)urea] | 1.9 | −16.1 | −13.4 | 21.2 | 0.2 | 2.6 | 30 | 152
CNC(=O)Nc1cc(Oc2ccc(NC(=O)Nc3cc(C(C)(C)C)nn3-c3ccc(OC)cc3)c(Cl)c2Cl)ncn1 [Example 97, 1-(3-tert-butyl-1-(4-methoxyphenyl)-1H-pyrazol-5-yl)-3-(2,3-dichloro-4-(6-(3-methylureido)pyrimidin-4-yloxy)phenyl) urea] | 0.1 | −27.2 | 32.9 | 33.2 | 0.1 | 1.4 | 1.2 | 203
